In US11879145B2, “Reagents and methods for replication, transcription, and translation in semi-synthetic organisms” (The Scripps Research Institute, priority 2019, dated 2024):

Test system: sfGFP^151(AXC)
Assay: Optimization of unnatural ribonucleotide triphosphate concentrations (sfGFP fluorescence and protein shift)
Type: cell-based, E. coli
Procedure: Examples 1A, 1B, and 2 identified dCNMO-dTPT3 as a competent UBP for the storage of information, and TAT1TP and NaMTP or 5FMTP as competent ribonucleoside triphosphates for its retrieval. Upon transformation with the same plasmids used above, 10 μM dTPT3TP and 25 μM dCNMOTP were provided in the growth media, which was then also supplemented with TAT1TP at concentrations ranging from 100 μM to 12.5 μM, and either NaMTP or 5FMTP at concentrations ranging from 200 μM to 12.5 μM, all in series of 2-fold dilutions, and after the addition of 1 mM AzK, the cells were induced to express sfGFP. […] In both cases, fluorescence was higher at lower concentrations of NaMTP or 5FMTP (due to increased production of contaminating natural sfGFP, see below). Additionally, cells generally produced higher fluorescence at higher concentrations of TAT1TP. […] Protein production was again quantified via the gel shift assay (FIG. 6C and FIG. 6D). Generally, as the concentration of NaMTP decreased below 200 μM, incrementally lower fidelity of AzK incorporation into sfGFP was observed, while with use of 5FMTP this reduction in fidelity was only observed below a concentration of 50 μM. Clearly lower concentrations of 5FMTP can be used without compromising fidelity. Cells provided with a high concentration of 5FMTP (≥50 µM) produced high protein shifts at all concentrations of TAT1TP explored (100 μM, 50 μM, 25 μM, or 12.5 μM).
Optimization of in vivo Translation Conditions. An overnight culture of the SSO strain ML2 carrying the pGEX-MbPylRS TetR plasmid was grown in 2×YT supplemented with 50 mM potassium phosphate, […] chloramphenicol and 100 μg/mL carbenicillin (herein referred to in this section as “media”), then diluted back to an OD600 of 0.03 in the same media and grown to an OD600 of 0.4-0.6. The culture was then chilled with shaking over ice-water for 15 min then pelleted by centrifugation at 3,200×g for 10 min. Cells were then resuspended and washed with ice-cold ddH2O twice then resuspended in ice-cold ddH2O to an OD600 of 55-65. The electrocompetent cells (50 μL) and ˜1 ng of Golden Gate assembled plasmid with the UBP within the sfGFP and tRNAPyl genes (see Golden Gate Assembly of Plasmids) were transferred to a pre-chilled electroporation cuvette (0.2-cm-gap), then electroporated (Gene Pulser II; Bio-Rad) according to manufacturer's recommendations (voltage […], capacitor 2.5 μF, resistor 200Ω), and then immediately diluted with 950 μL of media. […] The culture was monitored for cell growth (Envision 2103 Multilabel Plate Reader with a 590/20 nm filter) and then collected at an OD600˜1.0. […]

SMILES: COc1cc(C)c(F)cc1[C@@H]1O[C@H](COP(=O)(O)OP(=O)(O)OP(=O)(O)O)[C@@H](O)[C@H]1O [Compound 5FMTP]
- Concentration for combined optimization of protein purity and yield (5FMTP and TAT1TP pair): 50 µM
- XTP concentration below which lower fidelity of AzK incorporation into sfGFP was observed (with TAT1TP 12.5-100 μM): 50 µM
